Laboratory results taken from PubChem BioAssay AID2060352 (Molecular Pharmacology Branch, DTP, NCI, 2025).

Tested on: 616215-338-R-J1-PDC spheroid with HUVEC/MSC, viability
Experiment: Anticancer human tumor 616215-338-R-J1-PDC patient-derived colon adenocarcinoma cell line growth inhibition [TAK]
Settings: for IC50: curve of first compound; for viability, T/C: stronger effect = lower value
Procedure, shortened: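 Spheroids of 60% malignant cells, 25% HUVEC and 15% hMSC were exposed to targeted agents combined with TAK-243 or ipatasertib. Concentrations started at or near clinical Cmax (10 microM if unknown) and descended in half-log steps.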
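Note: spheroids exposed to drugs for 7 days before readout.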

Q: CC(C)CC(NC(=O)CNC(=O)c1cc(Cl)ccc1Cl)B1OC(=O)CC(CC(=O)O)(C(=O)O)O1 (stereo not given) + CC(C)NCC(C(=O)N1CCN(c2ncnc3c2C(C)CC3O)CC1)c1ccc(Cl)cc1 was tested. Which IC50 (second compound 0.3 µM) did it give?
A: 21 nM

Q: What about the IC50 (second compound 0.949 µM) of the same molecule?
A: 20.7 nM

Q: What about the IC50 (second compound 3 µM) of the same molecule?
A: 14.2 nM

Q: What about the IC50 (second compound 9.49 µM) of the same molecule?
A: < 0.316 nM

Q: What about the IC50 (second compound 30 µM) of the same molecule?
A: < 0.316 nM

Q: And the viability, T/C (second compound 0.3 µM, first compound 0.000316 µM)?
A: 115%

Q: And the viability, T/C (second compound 0.3 µM, first compound 0.001 µM)?
A: 123%

Q: And the viability, T/C (second compound 0.3 µM, first compound 0.00316 µM)?
A: 122%

Q: And the viability, T/C (second compound 0.3 µM, first compound 0.01 µM)?
A: 105%

Q: And the viability, T/C (second compound 0.3 µM, first compound 0.0316 µM)?
A: 19.7%

Q: What about the viability, T/C (second compound 0.3 µM, first compound 0.1 µM) of the same molecule?
A: 0.11%

Q: What about the viability, T/C (second compound 0.949 µM, first compound 0.000316 µM) of the same molecule?
A: 134%

Q: And the viability, T/C (second compound 0.949 µM, first compound 0.001 µM)?
A: 136%

Q: And the viability, T/C (second compound 0.949 µM, first compound 0.00316 µM)?
A: 132%

Q: And the viability, T/C (second compound 0.949 µM, first compound 0.01 µM)?
A: 129%

Q: What about the viability, T/C (second compound 0.949 µM, first compound 0.0316 µM) of the same molecule?
A: 4.16%

Q: What about the viability, T/C (second compound 0.949 µM, first compound 0.1 µM) of the same molecule?
A: 0.13%

Q: And the viability, T/C (second compound 3 µM, first compound 0.000316 µM)?
A: 78.8%

Q: And the viability, T/C (second compound 3 µM, first compound 0.001 µM)?
A: 68.6%

Q: And the viability, T/C (second compound 3 µM, first compound 0.00316 µM)?
A: 57.7%

Q: And the viability, T/C (second compound 3 µM, first compound 0.01 µM)?
A: 76.5%

Q: And the viability, T/C (second compound 3 µM, first compound 0.0316 µM)?
A: 3.6%

Q: What about the viability, T/C (second compound 3 µM, first compound 0.1 µM) of the same molecule?
A: 0.77%

Q: What about the viability, T/C (second compound 9.49 µM, first compound 0.000316 µM) of the same molecule?
A: 23.4%

Q: What about the viability, T/C (second compound 9.49 µM, first compound 0.001 µM) of the same molecule?
A: 21.8%

Q: And the viability, T/C (second compound 9.49 µM, first compound 0.00316 µM)?
A: 23.6%

Q: What about the viability, T/C (second compound 9.49 µM, first compound 0.01 µM) of the same molecule?
A: 23.7%

Q: What about the viability, T/C (second compound 9.49 µM, first compound 0.0316 µM) of the same molecule?
A: 1.97%

Q: What about the viability, T/C (second compound 9.49 µM, first compound 0.1 µM) of the same molecule?
A: 0.97%

Q: What about the viability, T/C (second compound 30 µM, first compound 0.000316 µM) of the same molecule?
A: 11.2%

Q: What about the viability, T/C (second compound 30 µM, first compound 0.001 µM) of the same molecule?
A: 9.33%

Q: What about the viability, T/C (second compound 30 µM, first compound 0.00316 µM) of the same molecule?
A: 10.7%

Q: What about the viability, T/C (second compound 30 µM, first compound 0.01 µM) of the same molecule?
A: 8.93%

Q: And the viability, T/C (second compound 30 µM, first compound 0.0316 µM)?
A: 2.11%

Q: And the viability, T/C (second compound 30 µM, first compound 0.1 µM)?
A: 0.25%
